Assay results reported in patent US20160220569A1, “CDK4/6 Inhibitor Dosage Formulations For The Protection Of Hematopoietic Stem And Progenitor Cells During Chemotherapy” (G1 Therapeutics, Inc., priority 2015, published 2016).
“And” between values parts separate entries of the source, which are not always exact repeats. Equal entries are not always repeated.

Assay: 14-day oral gavage toxicokinetic study in rats
Format: in vivo
Conditions: for Compound 1 Plasma Concentration: daily oral 2 mg/kg (Group 7), individual animals
Experimental: Plasma was obtained from blood samples collected from rats in a composite sampling scheme, with 3 samples collected per sex, per dose, at each target collection time, as illustrated in Table 21 to Table 25. Samples were collected from the vehicle control group on Day 1 and Day 14 at 3 hour after administration. […] Blood samples were collected in tubes containing K3EDTA as an anticoagulant and placed on ice until processed to plasma via centrifugation. Samples were stored frozen at −80° C. until shipment to the bioanalytical laboratory for analysis.
The following parameters were determined:
Cmax: Maximum observed plasma concentration (ng/mL).
A value of 0 ng/mL was assigned to all values below the lower limit of quantitation (BLQ, <10.0 ng/mL).
AUC(0-inf): Area under the plasma concentration vs. time curve extrapolated from 0 to infinity (ng*h/mL), calculated as AUC(0-t)+AUC(t-inf) where AUC(t-inf) is calculated as last measurable concentration (CLast) divided by ke, where ke is the elimination rate constant determined by linear regression of the last three analytically measured points on the log plasma concentration vs. time curve. The selection criteria of the data points for inclusion in the calculation of ke required that at least three data points representing the terminal phase (after Tmax) were regressed and that R2≧0.850 when rounded.
CL: Clearance (L/h/kg), calculated as the dose divided by AUC(0-t).
Vd: Volume of distribution (L/kg), calculated as dose divided by the product of ke and AUC(0-inf).
Vdss: Steady state volume of distribution (L/kg), calculated as clearance […] mean residence time, where mean residence time is calculated as the area under the first moment curve divided by AUC(0-t).
t½: Elimination half-life (h), calculated as ln(2)/ke, where ke is the elimination rate constant determined by linear regression. Half-life was defined as not determined if regression criteria (specified in AUC(0-inf) above) were not met.
Cmax/Dose: Normalized Cmax, calculated as Cmax divided by total dose.
AUC/Dose: Normalized AUC, calculated as AUC(0-t) divided by total dose.
ii. Statistical Analysis Mean and standard deviation (SD) were calculated in Watson. Values of BLQ were assigned a value of 0 ng/mL for mean calculations. Concentration values and derived TK parameters were reported to three significant figures.

[1] = male, rat, plasma, po, 30 mg/kg, oral 30 mg/kg, Study Day 14, Male

CN1CCN(c2ccc(Nc3ncc4cc5n(c4n3)C3(CCCCC3)CNC5=O)nc2)CC1 [Compound 1, 2′-((5-(4-methylpiperazin-1-yl)pyridin-2-yl)amino)-7′,8′-dihydro-6′H-spiro[cyclohexane-1,9′-pyrazino[1′,2′:1,5]pyrrolo[2,3-d]pyrimidin]-6′-one]
AUC(0-t) [1]: 29300 ng·h/mL
Cmax [1]: 2030 ng/mL
Tmax [1]: 4 h
half-life (male, rat, plasma, po, 30 mg/kg, oral 30 mg/kg, Study Day 14, Male, read-out: t½ (converted)): 293 min
Compound 1 Plasma Concentration (rats, Female, Day 1, 0.5 h, 2 mg/kg): 69.7 ng/mL and 120 ng/mL
Compound 1 Plasma Concentration (rats, Female, Day 1, 1 h, 2 mg/kg): 53.3 ng/mL and 115 ng/mL and 106 ng/mL
Compound 1 Plasma Concentration (rats, Female, Day 1, 2 h, 2 mg/kg): 185 ng/mL and 187 ng/mL
Compound 1 Plasma Concentration (rats, Female, Day 1, 4 h, 2 mg/kg): 90.2 ng/mL and 201 ng/mL and 234 ng/mL
Compound 1 Plasma Concentration (rats, Female, Day 1, 8 h, 2 mg/kg): 70.0 ng/mL and 69.2 ng/mL and 151 ng/mL
Compound 1 Plasma Concentration (rats, Female, Day 1, 12 h, 2 mg/kg): 100 ng/mL and 54.7 ng/mL
Compound 1 Plasma Concentration (rats, Female, Day 1, 24 h, 2 mg/kg): BLQ (Below the lower limit of quantitation (<10.0 ng/mL)) and 28.8 ng/mL and 10.2 ng/mL
Compound 1 Plasma Concentration (rats, Female, Day 1, […]): BLQ (Below the lower limit of quantitation (<10.0 ng/mL))
Compound 1 Plasma Concentration (rats, Female, Day 14, 0.5 h, 2 mg/kg): 108 ng/mL
Compound 1 Plasma Concentration (rats, Female, Day 14, 1 h, 2 mg/kg): 113 ng/mL
Compound 1 Plasma Concentration (rats, Female, Day 14, 2 h, 2 mg/kg): 200 ng/mL
Compound 1 Plasma Concentration (rats, Female, Day 14, 4 h, 2 mg/kg): 119 ng/mL
Compound 1 Plasma Concentration (rats, Female, Day 14, 8 h, 2 mg/kg): 54.0 ng/mL
Compound 1 Plasma Concentration (rats, Female, Day 14, 12 h, 2 mg/kg): 65.4 ng/mL and 32.0 ng/mL
Compound 1 Plasma Concentration (rats, Female, Day 14, 24 h, 2 mg/kg): BLQ (Below the lower limit of quantitation (<10.0 ng/mL))
Compound 1 Plasma Concentration (rats, Female, Day 14, Predose): BLQ (Below the lower limit of quantitation (<10.0 ng/mL))
Compound 1 Plasma Concentration (rats, Female, Day 14, […], 2 mg/kg): BLQ (Below the lower limit of quantitation (<10.0 ng/mL))
Compound 1 Plasma Concentration (rats, Male, Day 1, 0.5 h, 2 mg/kg): 64.1 ng/mL and 74.1 ng/mL and 35.0 ng/mL
Compound 1 Plasma Concentration (rats, Male, Day 1, 1 h, 2 mg/kg): 47.1 ng/mL and 65.2 ng/mL
Compound 1 Plasma Concentration (rats, Male, Day 1, 2 h, 2 mg/kg): 113 ng/mL and 95.5 ng/mL
Compound 1 Plasma Concentration (rats, Male, Day 1, 4 h, 2 mg/kg): 107 ng/mL and 148 ng/mL
Compound 1 Plasma Concentration (rats, Male, Day 1, 8 h, 2 mg/kg): 108 ng/mL and 64.1 ng/mL
Compound 1 Plasma Concentration (rats, Male, Day 1, 12 h, 2 mg/kg): 61.3 ng/mL and 47.8 ng/mL
Compound 1 Plasma Concentration (rats, Male, Day 1, 24 h): BLQ (Below the lower limit of quantitation (<10.0 ng/mL))
Compound 1 Plasma Concentration (rats, Male, Day 1, […]): BLQ (Below the lower limit of quantitation (<10.0 ng/mL))
Compound 1 Plasma Concentration (rats, Male, Day 14, 0.5 h, 2 mg/kg): 49.0 ng/mL and 55.7 ng/mL
Compound 1 Plasma Concentration (rats, Male, Day 14, 1 h, 2 mg/kg): 34.9 ng/mL and 61.2 ng/mL
Compound 1 Plasma Concentration (rats, Male, Day 14, 2 h, 2 mg/kg): 109 ng/mL and 91.3 ng/mL
Compound 1 Plasma Concentration (rats, Male, Day 14, 4 h, 2 mg/kg): 119 ng/mL and 112 ng/mL
Compound 1 Plasma Concentration (rats, Male, Day 14, 8 h, 2 mg/kg): 112 ng/mL and 102 ng/mL
Compound 1 Plasma Concentration (rats, Male, Day 14, 12 h, 2 mg/kg): 50.8 ng/mL and 45.6 ng/mL
Compound 1 Plasma Concentration (rats, Male, Day 14, 24 h): BLQ (Below the lower limit of quantitation (<10.0 ng/mL))
Compound 1 Plasma Concentration (rats, Male, Day 14, Predose): BLQ (Below the lower limit of quantitation (<10.0 ng/mL))
Compound 1 Plasma Concentration (rats, Male, Day 14, […]): BLQ (Below the lower limit of quantitation (<10.0 ng/mL))
Mean Compound 1 Plasma Concentration (rats, oral 2 mg/kg, Day 1, 24 h, Male, BLQ = <10.0 ng/mL): BLQ
Mean Compound 1 Plasma Concentration (rats, oral 2 mg/kg, Day 1, […], Female, BLQ = <10.0 ng/mL): BLQ
Mean Compound 1 Plasma Concentration (rats, oral 2 mg/kg, Day 1, […], Male, BLQ = <10.0 ng/mL): BLQ
Mean Compound 1 Plasma Concentration (rats, oral 2 mg/kg, Day 1, […], Overall, BLQ = <10.0 ng/mL): BLQ
Mean Compound 1 Plasma Concentration (rats, oral 2 mg/kg, Day 14, 24 h, Male, BLQ = <10.0 ng/mL): BLQ
Mean Compound 1 Plasma Concentration (rats, oral 2 mg/kg, Day 14, Pre-dose, Female, BLQ = <10.0 ng/mL): BLQ
Mean Compound 1 Plasma Concentration (rats, oral 2 mg/kg, Day 14, Pre-dose, Male, BLQ = <10.0 ng/mL): BLQ
Mean Compound 1 Plasma Concentration (rats, oral 2 mg/kg, Day 14, Pre-dose, Overall, BLQ = <10.0 ng/mL): BLQ
Mean Compound 1 Plasma Concentration (rats, oral 2 mg/kg, Day 14, […], Male, BLQ = <10.0 ng/mL): BLQ
Mean Compound 1 Plasma Concentration (rats, oral 5 mg/kg, Day 14, Pre-dose, Male): 20.0 ng/mL
Mean Compound 1 Plasma Concentration (rats, oral 5 mg/kg, Day 14, Pre-dose, Overall): 18.6 ng/mL
Mean Compound 1 Plasma Concentration (rats, oral 15 mg/kg, Day 14, Pre-dose, Female): 120 ng/mL
Mean Compound 1 Plasma Concentration (rats, oral 15 mg/kg, Day 14, Pre-dose, Male): 78.0 ng/mL
Mean Compound 1 Plasma Concentration (rats, oral 15 mg/kg, Day 14, Pre-dose, Overall): 99.2 ng/mL
Mean Compound 1 Plasma Concentration (rats, oral 30 mg/kg, Day 14, Pre-dose, Female): 336 ng/mL
Mean Compound 1 Plasma Concentration (rats, oral 30 mg/kg, Day 14, Pre-dose, Overall): 254 ng/mL
systemic exposure with increasing dose level (rats, oral, Days 1 and 14): increased roughly proportionally
